Laboratory results published in paper PMC6178619, “Arylvinylpiperazine Amides, a New Class of Potent Inhibitors Targeting QcrB of Mycobacterium tuberculosis” (mBio, 2018).
Converted amounts (≈) assume the structure as drawn. Like-named read-outs stand apart in the source and are kept apart here.

Experiments:
M. tuberculosis H37Rv [1] = type: cell-based; conditions: AX-35 14 µM, Q203 0.3 µM (100× MIC50), glucose
[2] = system: M. tuberculosis H37Rv ΔcydAB; type: cell-based; conditions: ΔcydAB strain; AX-35 14 µM, Q203 0.3 µM (100× MIC50)
HepG2 cells = type: cell-based, human
Description: Human HepG2 cells (4,000 cells/well) were incubated for 3 days with 2-fold serially diluted compounds at 37°C under an atmosphere of 5% CO2. Cell viability was determined by the addition of resazurin (0.0025% wt/vol) for 4 h at 37°C, and the fluorescence intensity was measured as in REMA.

M. tuberculosis H37Rv [3] = experiment: MIC by resazurin reduction microplate assay (REMA); type: cell-based, Mycobacterium tuberculosis
in vitro = experiment: in vitro
Description: Metabolic stability of the compounds was measured based on intrinsic clearance (Clint) in mouse and human liver microsomes as previously described ([42]). The final compound concentration in the mixture of microsomes and NADPH regeneration system was 2 µg/ml, and a mixture without NADPH regeneration was also prepared for each compound as a control of the stability of the compound with time.

[4] = system: M. tuberculosis H37Rv-infected THP-1 macrophages; experiment: microbe, parasite or virus in culture; type: cell-based; conditions: Mycobacterium tuberculosis, THP-1, 48 h, read-out: Antimycobacterial activity against M. tuberculosis H37Rv, ex vivo in THP-1 macrophages (IC50)
M. tuberculosis H37Rv [5] = experiment: Acute mouse model of TB; type: in vivo, mouse (BALB/c); conditions: for Reduction of bacterial load in mouse lungs vs TPGS vehicle control: once daily for 10 days
[6] = system: Mycobacterium massiliense; experiment: MIC by REMA; type: cell-based; conditions: Mycobacteroides abscessus
Pseudomonas aeruginosa = experiment: MIC by REMA; type: cell-based
Mycobacterium bovis BCG = experiment: microbe, parasite or virus in culture; type: cell-based; conditions: Mycobacterium tuberculosis variant bovis BCG
Micrococcus luteus = experiment: MIC by REMA; type: cell-based
[7] = system: Corynebacterium diphtheriae; experiment: MIC by REMA; type: cell-based
Enterococcus faecalis = experiment: MIC by REMA; type: cell-based
[8] = system: Salmonella enterica serovar Typhimurium; experiment: MIC by REMA; type: cell-based
wild-type H37Rv = type: cell-based, Mycobacterium tuberculosis; conditions: 2.5× MIC, 24 h exposure
Listeria monocytogenes = experiment: MIC by REMA; type: cell-based
Escherichia coli = experiment: MIC by REMA; type: cell-based
Mycobacterium ulcerans = experiment: MIC by REMA; type: cell-based
Mycobacterium vaccae = experiment: MIC by REMA; type: cell-based; conditions: Mycolicibacterium vaccae
Mycobacterium marinum = experiment: MIC by REMA; type: cell-based
Bacillus subtilis = experiment: MIC by REMA; type: cell-based
Pseudomonas putida = experiment: MIC by REMA; type: cell-based
Mycobacterium smegmatis = experiment: MIC by REMA; type: cell-based; conditions: Mycolicibacterium smegmatis
Mycobacterium avium = experiment: MIC by REMA; type: cell-based
[9] = system: Mycobacterium canettii STB-L; experiment: MIC by REMA; type: cell-based; conditions: Mycobacterium canetti
Staphylococcus aureus = experiment: MIC by REMA; type: cell-based
[10] = system: Corynebacterium glutamicum; experiment: MIC by REMA; type: cell-based
Candida albicans = experiment: MIC by REMA; type: cell-based
M. tuberculosis H37Rv [11] = conditions: cited from earlier work
M. bovis BCG = conditions: cited from earlier work
[12] = system: H37Rv ΔcydAB::cydAB complemented strain; type: cell-based
M. tuberculosis H37Rv [13] = type: cell-based; conditions: up to a concentration 32-fold higher than the MIC, 7 days
[14] = Mycobacterium tuberculosis, H37RV, 144 h; read-out: Antimycobacterial activity against M. tuberculosis H37Rv, in vitro (MIC)
[15] = H37RV; Mycobacterium tuberculosis (Table 2 panel); read-out: MIC
[16] = Mycobacterium canettii STB-L, read-out: MIC

Row | SMILES | Cytotoxicity in HepG2 cells (TD50) (HepG2 cells; 3 days incubation) [µg/mL] | MIC (M. tuberculosis H37Rv [3]; [14]) [µg/mL] | Clearance Category (in vitro; human, microsomes) | microsomal CLint at 2 µg/ml (in vitro; human, microsomes) [µL/min/mg] | Clearance Category (in vitro; mouse, microsomes) | microsomal CLint at 2 µg/ml (in vitro; mouse, microsomes) [µL/min/mg] | IC50 [4] [µg/mL] | MIC [6] [µg/mL] | MIC (Pseudomonas aeruginosa) [µg/mL] | MIC (Mycobacterium bovis BCG) [µg/mL] | MIC (Micrococcus luteus) [µg/mL] | MIC [7] [µg/mL] | MIC (Enterococcus faecalis) [µg/mL] | MIC [8] [µg/mL] | MIC (Listeria monocytogenes) [µg/mL] | MIC (Escherichia coli) [µg/mL] | MIC (Mycobacterium ulcerans) [µg/mL] | MIC (Mycobacterium vaccae) [µg/mL] | MIC (Mycobacterium marinum) [µg/mL] | MIC (Bacillus subtilis) [µg/mL] | other results
1 | CCc1nc2ccc(Cl)cn2c1C(=O)NCc1ccc(N2CCC(c3ccc(OC(F)(F)F)cc3)CC2)cc1 [Compound Q203, reference compound] | – | – | – | – | – | – | – | – | – | – | – | – | – | – | – | – | – | – | – | – | Oxygen consumption rate (OCR) change from basal on compound addition (M. tuberculosis H37Rv [1]): increase; Increase in OCR on compound addition [2]: no longer observed
2 | O=C(/C=C/c1ccccc1)N1CCN(Cc2ccc3c(c2)OCO3)CC1 [AX-38, (E)-1-(4-(Benzo[d][1,3]dioxol-5-ylmethyl)piperazin-1-yl)-3-phenylprop-2-en-1-one] | 37.5 | 0.2 (≈ 0.571 µM) | medium | 13.3 | high | 63.8 | 0.3 (≈ 0.856 µM) | – | – | – | – | – | – | – | – | – | – | – | – | – | –
3 | NC(=O)N1c2ccccc2C=Cc2ccccc21 [Carbamazepine, reference compound] | – | – | – | – | – | – | – | – | – | – | – | – | – | – | – | – | – | – | – | – | Clearance Category (in vitro; human microsomes, compound 2 µg/ml): low; Clearance Category (in vitro; mouse microsomes, compound 2 µg/ml): low
4 | O=C(/C=C/c1nccs1)N1CCN(Cc2ccc3c(c2)OCO3)CC1 [AX-39, (E)-1-(4-(Benzo[d][1,3]dioxol-5-ylmethyl)piperazin-1-yl)-3-(thiazol-2-yl)prop-2-en-1-one] | 75 | 0.3 (≈ 0.839 µM) | – | – | – | – | 1.8 (≈ 5.04 µM) | – | – | – | – | – | – | – | – | – | – | – | – | – | Reduction of bacterial load in mouse lungs vs TPGS vehicle control (M. tuberculosis H37Rv [5]; oral 100 mg/kg): 0.9 log10
5 | NNC(=O)c1ccncc1 [INH, isoniazid, reference compound] | – | – | – | – | – | – | – | – | – | – | – | – | – | – | – | – | – | – | – | – | log10 CFU per lung (M. tuberculosis H37Rv [5]; 25 mg/kg oral, Day 10): below l.o.d.
6 | O=C(/C=C/c1cscn1)N1CCN(Cc2ccc3c(c2)OCO3)CC1 [AX-37, (E)-1-(4-(Benzo[d][1,3]dioxol-5-ylmethyl)piperazin-1-yl)-3-(1λ^3,3λ^2-thiazol-4-yl)prop-2-en-1-one] | 25 | 0.1 (≈ 0.28 µM) | – | – | – | – | 0.2 (≈ 0.56 µM) | – | – | – | – | – | – | – | – | – | – | – | – | – | Reduction of bacterial load in mouse lungs vs TPGS vehicle control (M. tuberculosis H37Rv [5]; oral 100 mg/kg): 0.6 log10
7 | O=C(/C=C/c1ccsc1)N1CCN(Cc2ccc3c(c2)OCO3)CC1 [AX-36, (E)-1-(4-(Benzo[d][1,3]dioxol-5-ylmethyl)piperazin-1-yl)-3-(thiophen-3-yl)prop-2-en-1-one] | 37.5 | 0.1 (≈ 0.281 µM) | medium | 16.8 | high | 117 | 0.3 (≈ 0.842 µM) | 10.4 (≈ 29.2 µM) | > 100 | 0.8 (≈ 2.24 µM) | > 100 | > 100 | > 100 | > 100 | > 100 | 100 (≈ 281 µM) | 1.6 (≈ 4.49 µM) | 26.9 (≈ 75.5 µM) | 19.6 (≈ 55 µM) | > 100 | MIC (M. tuberculosis H37Rv [3]; [15]): 0.1 µg/mL (≈ 0.281 µM); Intracellular ATP level, lower than untreated control (wild-type H37Rv): ~90%; MIC (Pseudomonas putida): > 100 µg/mL; MIC (Mycobacterium smegmatis): 63 µg/mL (≈ 177 µM); MIC (Mycobacterium avium): 12.8 µg/mL (≈ 35.9 µM); MIC [9, 16]: 0.01 µg/mL (≈ 0.0281 µM); MIC (Staphylococcus aureus): > 100 µg/mL; MIC [10]: > 100 µg/mL; MIC (Candida albicans): > 100 µg/mL
8 | CO[C@H]1/C=C/O[C@@]2(C)Oc3c(C)c(O)c4c(O)c(c(/C=N/N5CCN(C)CC5)c(O)c4c3C2=O)NC(=O)/C(C)=C\C=C\[C@H](C)[C@H](O)[C@@H](C)[C@@H](O)[C@@H](C)[C@H](OC(C)=O)[C@@H]1C [Rifampin, rifampin, reference compound] | – | – | – | – | – | – | 0.1 (≈ 0.122 µM) | 26.9 (≈ 32.7 µM) | 1 (≈ 1.22 µM) | 0.0008 (≈ 0.000972 µM) | 0.7 (≈ 0.851 µM) | 0.0004 (≈ 0.000486 µM) | 0.6 (≈ 0.729 µM) | 0.7 (≈ 0.851 µM) | 0.8 (≈ 0.972 µM) | 6.7 (≈ 8.14 µM) | 0.01 (≈ 0.0122 µM) | 2.5 (≈ 3.04 µM) | 0.5 (≈ 0.608 µM) | 0.3 (≈ 0.365 µM) | Cytotoxicity in HepG2 cells (TD50) (HepG2 cells; human): 75 µg/mL; MIC (M. tuberculosis H37Rv [3]; Mycobacterium tuberculosis, H37RV): 0.001 µg/mL (≈ 0.00122 µM); MIC (M. tuberculosis H37Rv [3]; Mycobacterium tuberculosis, H37RV, 144 h, read-out: Antimycobacterial activity against M. tuberculosis H37Rv, in vitro (MIC)): 0.0008 µg/mL (≈ 0.000972 µM); MIC (Pseudomonas putida): 0.2 µg/mL (≈ 0.243 µM); MIC (Mycobacterium smegmatis): 1.7 µg/mL (≈ 2.07 µM); MIC (Mycobacterium avium): 25 µg/mL (≈ 30.4 µM); MIC [9]: 0.002 µg/mL (≈ 0.00243 µM); MIC (Staphylococcus aureus): 3.8 µg/mL (≈ 4.62 µM); MIC [10]: 0.004 µg/mL (≈ 0.00486 µM); MIC (Candida albicans): 1.5 µg/mL (≈ 1.82 µM)
9 | O=C(/C=C/c1cccs1)N1CCN(Cc2ccc3c(c2)OCO3)CC1 [AX-35, (E)-1-(4-(Benzo[d][1,3]dioxol-5-ylmethyl)piperazin-1-yl)-3-(thiophen-2-yl)prop-2-en-1-one] | 50 | 0.05 (≈ 0.14 µM) | medium | 21.7 | high | 120 | 0.1 (≈ 0.281 µM) | 7.7 (≈ 21.6 µM) | > 100 | 0.8 (≈ 2.24 µM) | > 100 | > 100 | > 100 | > 100 | > 100 | 74 (≈ 208 µM) | 1.6 (≈ 4.49 µM) | 12.1 (≈ 33.9 µM) | 11.5 (≈ 32.3 µM) | > 100 | MIC (M. tuberculosis H37Rv [11]): 0.3 µM (≈ 0.107 µg/mL); Oxygen consumption rate (OCR) change from basal on compound addition (M. tuberculosis H37Rv [1]): increase; Antimycobacterial activity against M. tuberculosis H37Rv, in vitro (MIC) (M. tuberculosis H37Rv [3]): 0.05 µg/mL; MIC (M. tuberculosis H37Rv [3]; [15]): 0.05 µg/mL (≈ 0.14 µM); MIC (M. bovis BCG): 0.3 µM (≈ 0.107 µg/mL); Intracellular ATP level, lower than untreated control (wild-type H37Rv): ~90%; Outcome of AX-35 treatment in complemented strain [12]: survival of the bacteria; Reduction of bacterial load in mouse lungs vs TPGS vehicle control (M. tuberculosis H37Rv [5]; oral 200 mg/kg): 0.4 log10; MIC (Pseudomonas putida): > 100 µg/mL; MIC (Mycobacterium smegmatis): 100 µg/mL (≈ 281 µM); Increase in OCR on compound addition [2]: no longer observed; MIC (Mycobacterium avium): 8.2 µg/mL (≈ 23 µM); MIC [9, 16]: 0.003 µg/mL (≈ 0.00842 µM); Mode of action (MBC, 99.9% killed) (M. tuberculosis H37Rv [13]): bacteriostatic; MIC (Staphylococcus aureus): > 100 µg/mL; MIC [10]: > 100 µg/mL; MIC (Candida albicans): > 100 µg/mL
